# Reference: US12070465B2, “Compositions and methods for the prevention and treatment of hearing loss” (Ting Therapeutics LLC, priority 2020, dated 2024)
# Legend:
# [1] = system: zebrafish neuromast hair cells; assay: Zebrafish model for excitotoxicity (kainic acid induced hair cell death); type: in vivo; settings: for performance compared with Piperlongumine against kainic acid (KA) induced hair cell death: KA 300 μM 1 hour, then derivative 2 hours at 1 nM to 100 μM, better at at least one dose
# Procedure: 5dpf Tg(Brn3c:mGFP) larvae were used for the experiments. Zebrafish were pretreated with kainic acid for one hour (300 μM) to mimic the excitotoxic damage induced by noise exposure, and then, post-treated with Piperlongumine-25 for 2 hours (al concentrations of 0.001 μM; 0.1 μM; 10 μM; and 100 μM). Control animal were treated with DMSO (−) or Piperlongumine-25 alone (+). Animals were then fixed and immunostained for GFP. Quantification was done by assessing three neuromasts in the same anatomic location of each animal (n=5). The data is plotted as mean+SD. Statistical testing was done with One-way ANOVA and Dunnett post-hoc test (P<0.0001 compared to KA).
# Subsequently, animals were transferred to E3 water for 5 hours and fixed in 4% paraformaldehyde (PFA) overnight. Neuromast HCs were immunolabeled with anti-otoferlin (HCS-1, DSHB) and anti-GFP (NB100-1614, Novus Biologicals). These two markers were used to detect and count neuromast HCs to reduce the chances of missing some of the HCs after the treatment since as it was previously noticed that incubation with the compounds can affect GFP expression more difficult to detect under a fluorescence microscope. Otic, middle, and opercular neuromasts were identified, and HCs at SO3 (supraorbital line neuromast) and O1-2 (Otic line neuromasts) were manually counted using a Zeiss AxioSkop 2 fluorescence microscope with a 40× oil objective. Control animals were treated with DMSO (−) or Neo or GM alone (+) Animals were then fixed and immunostained for GFP and otoferlin. Quantification was done by assessing three neuromasts in the same anatomic location of each animal (n=5). The data is plotted as mean+SD. Statistical testing was done with One-way ANOVA and Dunnett post-hoc test (*P<0.05, **P<0.01, ***P<0.001 compared to either Neo or GM, respectively). […] For the screening of piperlongumine derivatives for protection against noise-induced hearing loss we employed a zebrafish model that mimics excitotoxic damage. Five-day post-fertilization (dpf) Tg(brn3c:GFP) larvae were incubated with 300 μM of KA for 1 hour followed by piperlongumine-25 for 2 hours at 0.001 μM, 0.1 μM, 10 μM, and 100 μM. DMSO and KA were used as controls.
# 5 dpf fish were incubated with KA 300 μM for 1 hour followed by a two-hour incubation with one of the piperlongumine derivatives at 1 nM to 100 μM. Animals were fixed and immunostained for the hair cell marker, otoferlin. Neuromast hair cells were counted under a fluorescence microscope. At least 3 neuromast of the rostral lateral line were inspected per fish, in a total of 6 fish per treatment. Results are presented as mean+/−SD. Control, KA only, PG only, PG+KA, derivatives that were no protective against excitotoxicity, derivatives that performed better than PG.
# 5dpf fish were incubated with KA 300 μM for 1 hour followed by one of the PG derivatives at different concentrations for additional 2 hours. Animals were fixed and immunostained for otoferlin. Neuromast hair cells were quantified in at least 3 rostral neuromasts per fish in a total of 6 fish per treatment. Results are expressed as mean+/−SD. Statistical analysis: One-way ANOVA *P<0.05, **P<0.01, P<0.001 versus KA alone. These five Piperlongumine derivatives performed better than Piperlongumine at least one dose.
# [2] = system: zebrafish lateral line neuromast hair cells; assay: Zebrafish lateral line neuromast hair cell counts after aminoglycoside (neomycin or gentamycin); type: in vivo, Danio rerio; settings: 5 dpf larvae
# Text: Now referring to FIGS. 5A-C,(E)-1-(3-(3,4,5-trimethoxyphenyl)acryloyl)-S,6-dihydropyridin-2(1H)-one (Piperlongumine) protects from aminoglycoside induced hair cell loss in zebrafish lateral line neuromasts in vivo. Zebrafish lateral line neuromast HC counts are commonly used in vivo models for screening otoprotectants. Danio rerio experimental larvae were obtained by pair mating of adult fish maintained at Creighton University by standard methods approved by the Institutional Animal Care and Use Committee. Fish used were Tg(pou4f3:mGFP) expressing a membrane bound GFP in HCs. […] The lateral-line neuromasts of zebrafish are a valuable system for testing protectivity of compounds against aminoglycoside toxicity in vivo, as their HCs are considered homologous to those in the mammalian inner ear and are readily accessible to drugs. […]
# Subsequently, animals were transferred to E3 water for 5 hours and fixed in 4% paraformaldehyde (PFA) overnight. […] These two markers were used to detect and count neuromast HCs to reduce the chances of missing some of the HCs after the treatment since as it was previously noticed that incubation with the compounds can affect GFP expression more difficult to detect under a fluorescence microscope. […] Quantification was done by assessing three neuromasts in the same anatomic location of each animal (n=5). […]
# [3] = system: mouse embryonic fibroblast (MEFs); assay: MTT viability of mouse embryonic fibroblasts exposed to aminoglycosides; type: cell-based; settings: 15 hours
# Procedure: (§1) MEFs were incubated for 15 hours with neomycin (100 μM) or gentamicin (8 μM) with or without Piperlongumine (0.1 nM-5 μM). Cell viability was assessed employing MTT (3-(4-,5-dimethylthiazol-2-yl)-2,5-diphenyltetrazolium bromide) viability kit test (Thermo Fisher). The data is plotted as mean+SD. Statistical testing was done with One-way ANOVA and Dunnett post-hoc test (*P<0.05, **P<0.01 compared to either Neo or GM, respectively).
# as §1, with “Now referring to FIG. 7 (E)-1-(3-(3,4,5-trimethoxyphenyl)acryloyl)-S,6-dihydropyridin-2(1H)-one protects mouse embryonic fibroblast (MEFs) against aminoglycosides. MEFs” for “MEFs”, “without(E)-1-(3-(3,4,5-trimethoxyphenyl)acryloyl)-S,6-dihydropyridin-2(1H)-one” for “without Piperlongumine”, “μM) at 0.1 nM, 0.5 nM, 1 nM, 5 nM, 10 nM, 50 nM, 100 nM, and 500 nM.” for “μM).”
# [4] = system: C57BL/6 (Cdh23 corrected) mice; assay: ABR thresholds in kanamycin exposed mice; type: in vivo, mouse; settings: at 22.6 kHz; 40 mg/kg b.w. once a day for 17 days IP; kanamycin 700 mg/kg twice a day for 14 days; p=0.0408
# Procedure: (§2) C57BI6 (Cdh23 corrected) (6-7 weeks old) were exposed to vehicle+kanamycin (Veh+Kan) (700 mg/kg b.w. twice a day for 14 days) (shown as circles with four breaks); or (E)-1-(3-(3,4,5-trimethoxyphenyl)acryloyl)-S,6-dihydropyridin-2(1H)-one+kanamycin (PLM+Kan) with (E)-1-(3-(3,4,5-trimethoxyphenyl)acryloyl)-S,6-dihydropyridin-2(1H)-one (40 mg/kg b.w. once a day for 17 days) (shown as circle no breaks). Age match controls are shown (age, shown as circle with three breaks). Auditory brainstem response (ABR) thresholds were recorded for frequencies (4 kHz, 5.6 kHz, 8 kHz, 16 kHz, 22.6 kHz, 32 kHz, 45.2 kHz, and 64 kHz) before and after treatment protocol. […] Statistical analysis was done with repeated measures ANOVA between groups.
# Now referring to FIG. 8A, Piperlongumine protects from aminoglycoside toxicity in mice in vivo. 6-7-week-old C57BL/6 (Cdh23 corrected) were used, with a mix of males and females across experiments. […] Piperlongumine's protection against hearing impairment loss was assessed by measuring ABR threshold shifts in the mouse ear.
# Animals were anesthetized with a mixture of ketamine/xylazine before ABR assessment. […] Evoked responses were amplified (20x), bandpass filtered (300-3,000 Hz) and average of 512 responses of 10 ms duration was recorded. […]
# [5] = system: C57BL/6 (Cdh23 corrected) mice; assay: General toxicity in mice over the 17-day treatment regimen; type: in vivo, mouse; settings: 40 mg/kg b.w. for 17 days, with and without kanamycin
# Procedure: as §2
# Now referring to FIG. 8A, Piperlongumine protects from aminoglycoside toxicity in mice in vivo. 6-7-week-old C57BL/6 (Cdh23 corrected) were used, with a mix of males and females across experiments. Procedures were approved by the IACUC committee of the Creighton University.) Mice were treated with Piperlongumine (40 mg/kg b.w., for 17 days, IP) with or without kanamycin treatment (700 mg/kg b.w. for 14 days twice a day, s.q.). Piperlongumine's protection against hearing impairment loss was assessed by measuring ABR threshold shifts in the mouse ear.
# Age-control group mice were administered saline. […] Data are presented as mean+SD, n=3-4/group.
smiles,measurement,setting,value
O=C(/C=C/c1ccccc1)N1CCC1=O [PG 18],performance compared with Piperlongumine against kainic acid (KA) induced hair cell death,[1],better performance than Piperlongumine
COc1cccc(/C=C/C(=O)N2CCCCC2=O)c1 [PG25],protection of neuromast hair cells from excitotoxic damage induced by kainic acid,"[1]; 300 μM KA 1 hour, then compound 2 hours at 0.001 μM, 0.1 μM, 10 μM, 100 μM",protects neuromast hair cells from excitotoxic damage
same,performance compared with Piperlongumine against kainic acid (KA) induced hair cell death,[1],better performance than Piperlongumine
O=C(/C=C/c1ccc2c(c1)OC(F)(F)O2)N1CCCCC1=O [PG 54],performance compared with Piperlongumine against kainic acid (KA) induced hair cell death,[1],better performance than Piperlongumine
O=C(/C=C/c1ccc2c(c1)OC(F)(F)O2)N1CCCCCC1=O [PG 53],performance compared with Piperlongumine against kainic acid (KA) induced hair cell death,[1],better performance than Piperlongumine
"COc1cc(/C=C/C(=O)N2CCC=CC2=O)cc(OC)c1OC [Piperlongumine, (E)-1-(3-(3,4,5-trimethoxyphenyl)acryloyl)-S,6-dihydropyridin-2(1H)-one]",protection from gentamycin-induced hair cell death,[2]; 1 hour pre-incubation then co-incubation with 100 μM gentamycin for 1 hour,protects zebrafish neuromasts from gentamycin-induced hair cell death
same,protection from neomycin-induced hair cell death,[2]; 1 hour pre-incubation then co-incubation with 200 μM Neomycin for 30 minutes,protects zebrafish neuromasts from neomycin-induced hair cell death
same,"protection of MEFs against gentamycin (cell viability, MTT)","[3]; gentamicin 8 μM, observed at 0.1 nM to 1 nM",100%
same,"protection of MEFs against neomycin (cell viability, MTT)","[3]; neomycin 100 μM, observed at 0.1 nM to 10 nM",100%
same,protection of ABR threshold against kanamycin,[4],significant protection
same,general toxicity,[5],not toxic
O=C(/C=C/c1ccco1)N1CCC1=O [PG3],performance compared with Piperlongumine against kainic acid (KA) induced hair cell death,[1],better performance than Piperlongumine
